We go through 20 compounds from patent US9567318B2, “Substituted pyrimidine compounds and uses thereof” (Memorial Sloan-Kettering Cancer Center, priority 2009, dated 2017).

What all share (format): cell-based, human
The subject of assay [1] is HER2, Raf-1, Akt, Hsp70 in SKBr3 cells. Description: Western blotting of Hsp90 onco-client proteins and Hsp70 in SKBr3 cells. The method, then:
FIG. 3. Testing strategy for the discovery of YK5. a, b) SKBr3 cells were treated for 24 h with the indicated concentrations of inhibitors and cells were lysed for western blot (WB) analysis. β-actin was used as loading control. The data are consistent with those obtained from multiple repeat experiments (n≧3). c) The ability of the indicated inhibitors to compete with GM-Cy3B for Hsp90 binding in SKBr3 cell extracts was examined by fluorescence polarization. Values recorded in wells with added inhibitor were normalized to values read in control wells and plotted against the concentration of tested inhibitor. Drugs were assayed in triplicate. All compounds were used as DMSO stocks. Points, mean; bars, s.d. d) Growth inhibition: SKBr3 cells were incubated in triplicate with increasing concentrations of compound and growth over 72 h was assessed. Y-axis values below 0% represent cell death of the starting population. HER2 degradation was analyzed as in panel a), and gels were quantified by densitometry. Recorded values were normalized to control (vehicle only treated cells) and data graphed against YK5 concentration. Error bars represent the s.d. of the mean (n=3).
FIG. 8. […] Points, mean; bars, s.d. Yaxis values below 0% represent cell death of the starting population. c) Streptavidin beads (50 μl) were incubated with the indicated concentrations of YK55, YK56 or D-biotin to immobilize the corresponding compounds on beads. Beads (50 μl) were probed with SKBr3 cell extracts (500 μg), and the precipitated Hsp70 analyzed by western blot and quantified by […]. Results from three independent experiments were graphed to determine the relative binding affinity of YKs. Points, mean; bars, s.d. d) Structure of representative YKs. YK55 and YK56 are the biotinylated derivatives of YK54 and YK57, respectively.
FIG. 9. […] Cells were treated for 24 h with the indicated concentrations of YK149 and YK5. Cells were lysed and proteins analyzed by western blotting. b) Examples of the compounds of the present subject matter inhibit the activity of the oncogenic STAT3 in the triple-negative breast cancer cells MDA-MB-468. Cells were treated for the indicated times with compounds or vehicle and proteins analyzed by western blot. (c) Examples of the compounds of the present subject matter dose-dependently induce apoptosis in the acute myeloid leukemia cells MOLM13. Cells were treated for 24 h with the indicated concentration of compounds and the increase in caspase3,7 activity was measured and compared to only vehicle (DMSO) treated cells. Caspase-3,7 activity was a measure of compound potency in cleaving the caspase substrate Z-DEVD-R110 and releasing rhodamine. The percentage increase in apoptotic cells was calculated by comparing the fluorescence readings obtained from compounds with those obtained from vehicle (DMSO)-treated cells.
Western Blotting. Cells were grown to 60-70% confluence and treated with inhibitor or DMSO vehicle for the indicated times. Protein lysates were prepared in 50 mM Tris pH 7.4, 150 mM NaCl and 1% NP-40 lysis buffer. Protein concentrations were measured using the BCA kit (Pierce) according to the manufacturer's instructions. […]
(In general: A western blot detects proteins with antibodies after separation by electrophoresis.)

In assay [2] the test system is MDA-MB-468, SKBr3, LNCaP, MOLM-13, Kasumi-1, OCI-Ly7 and HuH7 cells. The experiment in a line: Growth inhibition in a panel of cancer cells. The note with it: growth over 72 h. Here is the method:
Tested were MDA-MB-468 triple-negative breast cancer cells, SKBr3 HER2+breast cancer cells, LNCaP mAR+prostate cancer cells, MOLM-13 and Kasumi-1 acute myeloid leukemia cells, OCI-Ly7 diffuse large B-cell lymphoma cells and HuH7 hepatocellular carcinoma cells. […] In cancer cells, half growth inhibitory concentrations ([…]) recorded for YK5 were in high agreement with its potency to degrade Hsp90 onco-clients.
(§1) Growth Inhibition Assay. Antiproliferative effects of inhibitors were evaluated using the dye Alamar blue. This reagent offers a rapid objective measure of cell viability in cell culture, and it uses the indicator dye resazurin to measure the metabolic capacity of cells, an indicator of cell viability. Briefly, cells were plated on Costar 96-well plates. For attached cells (such as SKBr3, MDA-MB-468, LNCaP, MRCS), 8,000 cells/well were used. For suspension cells (such as MOLM-13, Kasumi-1, OCI-Ly7, PBL), 20,000 cells/well were plated. Cells were allowed to incubate for 24 h at 37° C. before drug treatment. Drugs were added in triplicates at the indicated concentrations, and the plate was incubated for 72 h. Alamar Blue (440 μM) was added, and the plate read 6 h later using the Analyst GT (Fluorescence intensity mode, excitation 530 nm, emission 580 nm, with 560=dichroic mirror). Results were analyzed using the Softmax Pro software. The percentage cell growth inhibition was calculated by comparing fluorescence readings obtained from treated versus control cells, accounting for initial cell population (time zero).

The subject of assay [3] is Kasumi-1 acute myeloid leukemia cells. The experiment in a line: Growth Inhibition Assay (Alamar blue), Kasumi-1. The note with it: Kasumi-1 cells. The method, boiled down:
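Adherent SKBr3 cells seeded at 8,000/well and suspension Kasumi-1 cells at 20,000/well, rested 24 h at 37 °C, then treated in triplicate for 72 h. Viability read by Alamar blue (440 µM) fluorescence (ex 530/em 580 nm) after 6 h; growth inhibition calculated versus untreated controls, corrected for the time-zero cell population.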

Assay [4] has as its system SKBr3 HER2+ breast cancer cells. The experiment in a line: Growth Inhibition Assay (Alamar blue), SKBr3. The note with it: Homo sapiens, SK-BR-3, 72 h. Here is the method: The IC50 values listed for some of these compounds illustrate the antiproliferative effects of the subject compounds and were obtained using the Growth Inhibition assays described herein.
as §1
For orientation: The colour change of resazurin is a common sign of viable cells or microbes.

As to `CC(C)NCCCn1c(Sc2cc3c(cc2I)OCO3)nc2c(N)ncnc21` [PU-H71, reference compound], in assay [1] (SKBr3 cells, 24 h), the “feed-back induction of Hsp70 (heat shock response)” value is “potently activated a heat shock response”. Also, the “growth of all tested cancer cells” value in assay [2] is “inhibited the growth of all tested cancer cells”.
Usually IC50 stands for the midpoint of a concentration-inhibition curve. Take `CCOc1nc(N2CCN(C)CC2)nc(OCC)c1Sc1nc(N)cc(NC(=O)CC)n1` [YK31, N-(6-amino-2-(4,6-diethoxy-2-(4-methylpiperazin-1-yl)pyrimidin-5-ylthio)pyrimidin-4-yl)propionamide]: the IC50 in assay [3] (Homo sapiens, Kasumi 1, 72 h) was 34.1 µM. In assay [1] (FIG. 8a, relative to YK30), the “lowering of biological activity, ethylamide versus acrylamide YK30” value came to 30 fold.
For `CCC(=O)Nc1ccnc(Sc2c(C)nc(N3CCN(C)CC3)nc2C)n1` [YK86, N-(2-(4,6-dimethyl-2-(4-methylpiperazin-1-yl)pyrimidin-5-ylthio)pyrimidin-4-yl)propionamide], the IC50 in assay [3] (Homo sapiens, Kasumi 1, 72 h) amounted to 26.2 µM; in assay [4] it was 44.4 µM.
As for `COCC(=O)Nc1ccnc(Sc2c(C)nc(N3CCOCC3)nc2C)n1` [YK123, N-(2-(4,6-dimethyl-2-morpholinopyrimidin-5-ylthio)pyrimidin-4-yl)-2-methoxyacetamide], the IC50 in assay [3] (Homo sapiens, Kasumi 1, 72 h) was 58.1 µM; in assay [4], more than 100 µM.
The corresponding values for `C/C=C/C(=O)Nc1cccc(Sc2c(OC)nc(N3CCN(C)CC3)nc2OC)c1` [YK131, (E)-N-(3-(4,6-dimethoxy-2-(4-methylpiperazin-1-yl)pyrimidin-5-ylthio)phenyl)but-2-enamide] are 15 µM and 20.7 µM.
The corresponding values for `C=CC(=O)Nc1ccnc(Sc2c(C)nc(N3CCOCC3)nc2C)n1` [YK117, N-(2-(4,6-dimethyl-2-morpholinopyrimidin-5-ylthio)pyrimidin-4-yl)acrylamide] are 6.2 µM and 14.4 µM.
On to `COc1nc(N2CCN(C)CC2)nc(OC)c1Sc1cccc(NC(=O)CN)c1` [YK149, 2-amino-N-(3-(4,6-dimethoxy-2-(4-methylpiperazin-1-yl)pyrimidin-5-ylthio)phenyl)acetamide], for which the IC50 stood at 13.9 µM in assay [3] (Homo sapiens, Kasumi 1, 72 h) and 21 µM in assay [3] (72 h). Besides, the “degradation of Hsp90 onco-client proteins (HER2, Raf-1, Akt)” value in assay [1] (SKBr3 cells, 24 h, western blot) was “dose-dependently reduce the steady-state levels of HER2 and Raf-1”.
In the case of `C=CC(=O)Nc1ccnc(Sc2c(OC)nc(OC)nc2OC)n1` [YK76, N-(2-(2,4,6-trimethoxypyrimidin-5-ylthio)pyrimidin-4-yl)acrylamide], the IC50 is 22.5 µM in assay [3] (Homo sapiens, Kasumi 1, 72 h) and 2.4 µM in assay [4].
The like results for `C=CC(=O)Nc1ccnc(Sc2c(OC)nc(N3CCOCC3)nc2OC)n1` [YK73, N-(2-(4,6-dimethoxy-2-morpholinopyrimidin-5-ylthio)pyrimidin-4-yl)acrylamide] were, in that order, 1.9 µM and 11.6 µM.
`C=CC(=O)Nc1cccc(Sc2c(OC)nc(N3CCOCC3)nc2OC)c1` [PDP3, N-(3-(4,6-dimethoxy-2-morpholinopyrimidin-5-ylthio)phenyl)acrylamide]: the half-inhibitory concentration (IC50) in assay [3] (Homo sapiens, Kasumi 1, 72 h) was 11.4 µM; in assay [4] it was 16.5 µM.
The corresponding values for `C=CC(=O)Nc1ccnc(Sc2c(OC)nc(N3CCCC3)nc2OC)n1` [YK74, N-(2-(4,6-dimethoxy-2-(pyrrolidin-1-yl)pyrimidin-5-ylthio)pyrimidin-4-yl)acrylamide] are 42.2 µM and 4.3 µM.
Take `C=CC(=O)Nc1cccc(Sc2c(OC)nc(N3CCN(C)CC3)nc2OC)c1` [YK129, N-(3-(4,6-dimethoxy-2-(4-methylpiperazin-1-yl)pyrimidin-5-ylthio)phenyl)acrylamide]: the IC50 in assay [3] (Homo sapiens, Kasumi 1, 72 h) was 7.7 µM; in assay [3] (72 h) it was 9.9 µM; in assay [4], 6.8 µM.
The corresponding values for `COc1nc(N2CCN(C)CC2)nc(OC)c1Sc1cccc(NC(=O)C2CC2)c1` [YK139, N-(3-(4,6-dimethoxy-2-(4-methylpiperazin-1-yl)pyrimidin-5-ylthio)phenyl)cyclopropanecarboxamide] are 8.9 µM, 7.9 µM and 7.7 µM.
The like results for `COc1nc(N2CCN(C)CC2)nc(OC)c1Sc1cccc(N)c1` [YK133, 3-(4,6-dimethoxy-2-(4-methylpiperazin-1-yl)pyrimidin-5-ylthio)aniline] were, in that order, 30.5 µM, 25.4 µM and 37.3 µM.
On to `CCC(=O)Nc1ccnc(Sc2c(C)nc(N3CCOCC3)nc2C)n1` [YK118, N-(2-(4,6-dimethyl-2-morpholinopyrimidin-5-ylthio)pyrimidin-4-yl)propionamide], for which the IC50 was more than 100 µM in assay [3] (Homo sapiens, Kasumi 1, 72 h) and more than 100 µM in assay [4].
As to `COc1nc(N2CCCC2)nc(OC)c1Sc1nccc(NC(=O)C2CC2)n1` [YK110, N-(2-(4,6-dimethoxy-2-(pyrrolidin-1-yl)pyrimidin-5-ylthio)pyrimidin-4-yl)cyclopropanecarboxamide], the half-inhibitory concentration (IC50) was more than 100 µM in assay [3] (Homo sapiens, Kasumi 1, 72 h) and more than 100 µM in assay [4].
For `C=C(C)C(=O)Nc1ccnc(Sc2c(C)nc(N3CCN(C)CC3)nc2C)n1` [YK88, N-(2-(4,6-dimethyl-2-(4-methylpiperazin-1-yl)pyrimidin-5-ylthio)pyrimidin-4-yl)methacrylamide], the IC50 in assay [3] (Homo sapiens, Kasumi 1, 72 h) worked out at 13.1 µM; in assay [4], 16.7 µM.
Take `CCC(=O)Nc1cccc(Sc2c(OC)nc(N)nc2OC)c1` [YK140, N-(3-(2-amino-4,6-dimethoxypyrimidin-5-ylthio)phenyl)propionamide]: the half-maximal inhibitory concentration (IC50) was determined as 35.2 µM in assay [3] (Homo sapiens, Kasumi 1, 72 h) and 99.5 µM in assay [4].
On to `Cc1nc(N2CCN(C)CC2)nc(C)c1Sc1nccc(NC(=O)c2ccco2)n1` [YK89, N-(2-(4,6-dimethyl-2-(4-methylpiperazin-1-yl)pyrimidin-5-ylthio)pyrimidin-4-yl)furan-2-carboxamide], for which the IC50 stood at 12 µM in assay [3] (Homo sapiens, Kasumi 1, 72 h); 7.5 µM in assay [3] (72 h); 6.8 µM in assay [4].
With `C=CC(=O)Nc1ccnc(Sc2c(OC)nc(N3CC[N+](C)([O-])CC3)nc2OC)n1` [YK80, 4-(5-(4-acrylamidopyrimidin-2-ylthio)-4,6-dimethoxypyrimidin-2-yl)-1-methylpiperazine 1-oxide], the IC50 in assay [3] (Homo sapiens, Kasumi 1, 72 h) was more than 100 µM; in assay [4], 31.1 µM.
